The source of these data is patent US20250154198A1, “PEPTIDE INHIBITORS OF INTERLEUKIN-23 RECEPTOR” (Zealand Pharma A/S, priority 2021, published 2025).

*1 amine or outer side, *2 acyl side, *3 side chain or, on linkers, in order; H or OH if unused. Where a SMILES comes first, the peptide text is derived from it. Bridges are numbered along the chain shown (N, C = ends). [ ]: non-standard residue; d: D form. αMeAla(3-pyridyl) = C[C@](N)(Cc1cccnc1)C(=O)O; X10 = C[C@@](Cc1ccc(F)cc1)(N[*:1])C(=O)[*:2]; Trp(1-Me) = Cn1cc(C[C@H](N)C(=O)O)c2ccccc21; Phe(3,4-Me2) = Cc1ccc(C[C@H](N)C(=O)O)cc1C; Phe(4-Cl) = N[C@@H](Cc1ccc(Cl)cc1)C(=O)O; 2Nal = N[C@@H](Cc1ccc2ccccc2c1)C(=O)O; AEF = NCCOc1ccc(C[C@H](N)C(=O)O)cc1; X1 = O=C(Cc1ccc(CN[*:1])cc1)[*:2]; αMeL = CC(C)C[C@](C)(N)C(=O)O; CH2COCH2 = O=C(C[*:1])C[*:2]; αMeV = CC(C)[C@](C)(N)C(=O)O; Dab = NCC[C@H](N)C(=O)O

A short description of series [1]: Peptide stability in simulated intestinal fluid (SIF). Format: in vitro ADME. To be noted: pig, Table 3-2, porcine pancreatin, pH 6.8, 37° C., 10 μM; for remaining at 4 h, 10 μM: read-out: SIF (% remaining 4 h); for remaining at 1 h, 10 μM: read-out: SIF (% remaining 1 h). The essentials: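 Peptides incubated at 37°C with gentle shaking in SGF (NaCl, HCl, pH 1.2) or SIF (phosphate pH 6.8 with 10 g/L porcine pancreatin). Samples analysed by LC-HRMS; percent remaining at each timepoint calculated from absolute peak areas relative to time zero.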

A short description of series [2]: Peptide stability in simulated gastric fluid (SGF). The format is in vitro ADME. To be noted: Table 3-3, porcine pepsin, pH 1.2, 37° C., 10 μM; for remaining at 4 h, 10 μM / remaining at 1 h, 10 μM: pig; for remaining at 4 h, 10 μM: read-out: SGF (% remaining 4 h); for remaining at 1 h, 10 μM: read-out: SGF (% remaining 1 h). The method, then: Determination of Peptide Stability in Simulated Gastric Fluid (SGF) and Simulated Intestinal Fluid (SIF)
SGF was prepared by dissolving sodium chloride (0.2 g) in 50 mL of water. A volume of 0.7 mL of 10 M HCl was added to adjust the pH of the solution to 1.2 and the volume made up to 100 mL with water. […] SIF was prepared by dissolving monobasic potassium phosphate (0.68 g) in 50 mL of water and adjusting the pH to 6.8 with 1 M NaOH. The volume was subsequently made up to 100 mL with water. 200 mg porcine pancreatin (P1625, Sigma Aldrich) was gently dissolved into 20 mL preheated (37° C.) solution (10 g/L) immediately prior to the incubation.
The incubation was performed at 37° C. with gentle shaking. […] After the last timepoint, the sampling plate was mixed for 10 min on a shaking table and centrifuged 10 min at 2200 g. 70 μL resulting supernatant was diluted with 150 μL water, mixed and centrifugated before analysis by liquid chromatography high resolution mass spectrometry. […] Percent remaining at each timepoint was calculated relative to timepoint zero based on absolute peak areas.

The mark [3] stands for this setting: simulated intestinal fluid (SIF) with porcine pancreatin.
Where [4] appears, read: simulated gastric fluid (SGF) with porcine pepsin, 4 h.
The mark [5] stands for this setting: simulated gastric fluid (SGF) with porcine pepsin.

Take `CC[C@H](C)[C@@H]1NC(=O)Cc2ccc(cc2)CNC(=O)CC[C@@H](C(=O)N[C@@H](CCN)C(=O)N[C@@](C)(Cc2cccnc2)C(N)=O)NC(=O)[C@](C)(C(C)C)NC(=O)[C@H](Cc2ccc(C)c(C)c2)NC(=O)[C@H](Cc2ccc(OCCN)cc2)NC(=O)[C@@H]2CCNC(=O)CC[C@H](NC1=O)C(=O)N[C@@H](Cc1c[nH]c3ccccc13)C(=O)N[C@@H](CCC(N)=O)C(=O)N2` [Compound 165, [4-Aminomethyl-phenylacetyl](1c)*IE(2c)WQ[Dab](2c)[Y(2-aminoethoxy)][F(3,4-Me)][2-Me-Val]E(1c)[Dab][2-Me-3-(3-Pyridyl)-Ala]-[NH2]] ([X1]IEWQ[Dab][AEF][Phe(3,4-Me2)][αMeV]E[Dab][αMeAla(3-pyridyl)]-NH2; lactam 3-6, N-10): the amount remaining at 4 h, 10 μM in series [1] (setting [3]) and in series [2] (setting [4]) was 109% each time.

As for `CC(=O)N[C@@H](CC(=O)O)C(=O)N[C@H]1CCC(=O)NCCCC[C@@H](C(=O)N[C@@H](CCC(=O)O)C(=O)N[C@@H](CC(N)=O)C(=O)NCC(N)=O)NC(=O)[C@](C)(CC(C)C)NC(=O)[C@H](Cc2ccc3ccccc3c2)NC(=O)[C@H](Cc2c[nH]c3ccccc23)NC(=O)[C@@H]2CSCC(=O)CSC[C@H](NC(=O)[C@H](CO)NC1=O)C(=O)N[C@@H](Cc1c[nH]c3ccccc13)C(=O)N[C@@H](CCC(N)=O)C(=O)N2` [Compound 58, [Ac]-DE(1c)SC(2a)WQC(2a)W[2-Nal][2-Me-Leu]K(1c)ENG-[NH2]] (Ac-DESCWQCW[2Nal][αMeL]KENG-NH2; lactam 2-11; linker 4-7 via CH2COCH2), the values for the fraction remaining at 1 h, 10 μM in series [1] (setting [3]) and in series [2] (setting [5]) were 80% and 61%, respectively. In addition, the fraction remaining at 4 h, 10 μM in series [1] (setting [3]) is 45%; in series [2] (setting [4]) it was 8%.

Consider `CC(C)C[C@]1(C)NC(=O)[C@H](Cc2ccc3ccccc3c2)NC(=O)[C@H](Cc2ccccc2)NC(=O)[C@@H]2CCNC(=O)CC[C@H](NC(=O)[C@H](CO)NC(=O)Cc3ccc(cc3)CNC(=O)CC[C@@H](C(=O)N[C@@H](CCN)C(N)=O)NC1=O)C(=O)N[C@@H](Cc1c[nH]c3ccccc13)C(=O)N[C@@H](CCC(N)=O)C(=O)N2` [Compound 130, [4-Aminomethyl-phenylacetyl](1c)*SE(2c)WQ[Dab](2c)F[2-Nal][2-Me-Leu]E(1c)[Dab]-[NH2]] ([X1]SEWQ[Dab]F[2Nal][αMeL]E[Dab]-NH2; lactam 3-6, N-10), for which the share remaining at 1 h, 10 μM is 1% in series [1] (setting [3]) and 59% in series [2] (setting [5]). Also, the share remaining at 4 h, 10 μM in series [1] (setting [3]) was 0%; in series [2] (setting [4]) it was 14%.

`CC(=O)N[C@@H](CC(=O)O)C(=O)N[C@H]1CCC(=O)NCCCC[C@@H](C(=O)N[C@@H](CCCNC(=N)N)C(N)=O)NC(=O)[C@](C)(CC(C)C)NC(=O)[C@H](Cc2ccc3ccccc3c2)NC(=O)[C@H](Cc2c[nH]c3ccccc23)NC(=O)[C@@H]2CSCC(=O)CSC[C@H](NC(=O)[C@H]([C@@H](C)O)NC1=O)C(=O)N[C@@H](Cc1c[nH]c3ccccc13)C(=O)N[C@@H](CCC(N)=O)C(=O)N2` [Compound 57, [Ac]-DE(1c)TC(2a)WQC(2a)W[2-Nal][2-Me-Leu]K(1c)R-[NH2]] (Ac-DETCWQCW[2Nal][αMeL]KR-NH2; lactam 2-11; linker 4-7 via CH2COCH2): the fraction remaining at 1 h, 10 μM was 7% in series [1] (setting [3]) and 21% in series [2] (setting [5]). Besides, the share remaining at 4 h, 10 μM was 0% in series [1] (setting [3]) and 1% in series [2] (setting [4]).

As to `CC[C@H](C)[C@@H]1NC(=O)Cc2ccc(cc2)CNC(=O)CC[C@@H](C(=O)N[C@@H](CCN)C(=O)N[C@@](C)(Cc2cccnc2)C(N)=O)NC(=O)[C@](C)(C(C)C)NC(=O)[C@H](Cc2ccc(C)c(C)c2)NC(=O)[C@](C)(Cc2ccc(F)cc2)NC(=O)[C@@H]2CCNC(=O)CC[C@H](NC1=O)C(=O)N[C@@H](Cc1c[nH]c3ccccc13)C(=O)N[C@@H](CCC(N)=O)C(=O)N2` [Compound 169, [4-Aminomethyl-phenylacetyl](1c)*IE(2c)WQ[Dab](2c)[2-Me-F(4-F)][F(3,4-Me)][2-Me-Val]E(1c)[Dab][2-Me-3-(3-Pyridyl)-Ala]-[NH2]] ([X1]IEWQ[Dab][X10][Phe(3,4-Me2)][αMeV]E[Dab][αMeAla(3-pyridyl)]-NH2; lactam 3-6, N-10), the share remaining at 4 h, 10 μM in series [1] (setting [3]) was 72%. Further, the “SGF (% remaining 4 h)” value in series [2] (4 h) was 121%.

Regarding `CC(C)C[C@]1(C)NC(=O)[C@H](Cc2c[nH]c3ccccc23)NC(=O)[C@H](Cc2c[nH]c3ccccc23)NC(=O)[C@@H]2CSCC(=O)CSC[C@H](NC(=O)[C@H](CO)NC(=O)[C@@H](NC(=O)[C@@H](N)CC(=O)O)CSCC(=O)CSC[C@@H](C(=O)N[C@@H](CCCNC(=N)N)C(N)=O)NC1=O)C(=O)N[C@@H](Cc1c[nH]c3ccccc13)C(=O)N[C@@H](CCC(N)=O)C(=O)N2` [Compound 1, H-DC(1a)SC(2a)WQC(2a)WW[2-Me-Leu]C(1a)R-[NH2]], the amount remaining at 1 h, 10 μM in series [1] was 0%; in series [2] it was 86%. For the same molecule, the share remaining at 4 h, 10 μM in series [1] was 0%; in series [2] (4 h) it was 68%.

In the case of `CC[C@H](C)[C@@H]1NC(=O)Cc2ccc(cc2)CNC(=O)CC[C@@H](C(=O)N[C@@H](CCN)C(=O)N[C@@](C)(Cc2cccnc2)C(N)=O)NC(=O)[C@](C)(C(C)C)NC(=O)[C@H](Cc2ccc(C)c(C)c2)NC(=O)[C@H](Cc2ccc(Cl)cc2)NC(=O)[C@@H]2CCNC(=O)CC[C@H](NC1=O)C(=O)N[C@@H](Cc1c[nH]c3ccccc13)C(=O)N[C@@H](CCC(N)=O)C(=O)N2` [Compound 171, [4-Aminomethyl-phenylacetyl](1c)*IE(2c)WQ[Dab](2c)[F(4-Cl)][F(3,4-Me)][2-Me-Val]E(1c)[Dab][2-Me-3-(3-Pyridyl)-Ala]-[NH2]] ([X1]IEWQ[Dab][Phe(4-Cl)][Phe(3,4-Me2)][αMeV]E[Dab][αMeAla(3-pyridyl)]-NH2; lactam 3-6, N-10), the values for the amount remaining at 4 h, 10 μM in series [1] (setting [3]) and in series [2] (setting [4]) were 68% and 75%, respectively.

Regarding `CC(=O)N[C@@H](CC(=O)O)C(=O)N[C@H]1CCC(=O)NCCCC[C@@H](C(=O)NCC(N)=O)NC(=O)[C@](C)(CC(C)C)NC(=O)[C@H](Cc2ccc3ccccc3c2)NC(=O)[C@H](Cc2c[nH]c3ccccc23)NC(=O)[C@@H]2CSCC(=O)CSC[C@H](NC(=O)[C@H](CO)NC1=O)C(=O)N[C@@H](Cc1c[nH]c3ccccc13)C(=O)N[C@@H](CCC(N)=O)C(=O)N2` [Compound 60, [Ac]-DE(1c)SC(2a)WQC(2a)W[2-Nal][2-Me-Leu]K(1c)G-[NH2]] (Ac-DESCWQCW[2Nal][αMeL]KG-NH2; lactam 2-11; linker 4-7 via CH2COCH2), the amount remaining at 1 h, 10 μM in series [1] (setting [3]) was 69%; in series [2] (setting [5]) it was 7%. In addition, the values for the fraction remaining at 4 h, 10 μM in series [1] (setting [3]) and in series [2] (setting [4]) were 12% and 0%, respectively.

`CC(=O)N[C@H]1CCSC[C@@H](C(=O)N[C@@H](Cc2ccc(OCCN)cc2)C(=O)N[C@@H](Cc2c[nH]c3ccccc23)C(=O)N[C@@](C)(CCCCN)C(=O)N[C@@H](CCC(=O)O)C(=O)N[C@@H](CC(N)=O)C(=O)NCC(N)=O)NC(=O)[C@H](CCC(N)=O)NC(=O)[C@H](Cc2c[nH]c3ccccc23)NC(=O)[C@H]([C@@H](C)O)NC(=O)[C@H](CCC(N)=O)NC1=O` [Compound C, [Ac]-[Abu](16i)QTWQC(16i)[Y(2-aminoethoxy)]W[2-Me-Lys]ENG-[NH2], reference compound]: the values for the fraction remaining at 1 h, 10 μM in series [1] (setting [3]) and in series [2] (setting [5]) were 92% and 100%, respectively. In series [1] (setting [3]), the share remaining at 4 h, 10 μM was 76%.

For `CC(=O)N[C@H]1CCCCNC(=O)CC[C@@H](C(=O)N[C@@H](CCCNC(=N)N)C(N)=O)NC(=O)[C@H](CC(C)C)NC(=O)[C@H](Cc2ccc3ccccc3c2)NC(=O)[C@H](Cc2c[nH]c3ccccc23)NC(=O)[C@@H]2CSCC(=O)CSC[C@H](NC(=O)[C@H](CO)NC1=O)C(=O)N[C@@H](Cc1cn(C)c3ccccc13)C(=O)N[C@@H](CCC(N)=O)C(=O)N2` [Compound 27, [Ac]-K(1c)SC(2a)[1-Me-Trp]QC(2a)W[2-Nal]LE(1c)R-[NH2]] (Ac-KSC[Trp(1-Me)]QCW[2Nal]LER-NH2; lactam 1-10; linker 3-6 via CH2COCH2), the amount remaining at 1 h, 10 μM in series [1] (setting [3]) and in series [2] (setting [5]) was 0% throughout. Also, the amount remaining at 4 h, 10 μM in series [1] (setting [3]) and in series [2] (setting [4]) was 0% throughout.
